# Reference: patent US8063064B2, “Non-nucleoside reverse transcriptase inhibitors” (Roche Palo Alto LLC, priority 2006, dated 2011)
# pIC50: −log10 of the molar value. Where a name gives a salt, the structure may show the parent alone.
# Biological target: T1, HIV-1 RT (Human immunodeficiency virus type 1 group M subtype B, UniProt P03366)
# Experiment: Homopolymer HIV Reverse Transcriptase Assay: Inhibitor IC50 Determination
# Assay type: biochemical
# Settings: purified recombinant enzyme, poly(rA)/oligo(dT)16 template-primer, 5 nM HIV-1 RT, 37° C. 30 min; TABLE 3
# Method: HIV-1 RT assay was carried out in 96-well Millipore filtermat NOB50 plates using purified recombinant enzyme and a poly(rA)/oligo(dT)16 template-primer in a total volume of 50 μL. The assay constituents were 50 mM Tris/HCl, 50 mM NaCl, 1 mM EDTA, 6 mM MgCl2, 5 μM dTTP, 0.1 μCi [^3H] dTTP, 5 μg/ml poly (rA) pre annealed to 2.5 μg/ml oligo (dT)16 and a range of inhibitor concentrations in a final concentration of 10% DMSO. Reactions were initiated by adding 5 nM HIV-1 RT and after incubation at 37° C. for 30 min, they were stopped by the addition of 50 μl ice cold 20% TCA and allowed to precipitate at 4° C. for 30 min. The precipitates were collected by applying vacuum to the plate and sequentially washing with 2×200 μl of 10% TCA and 2×200 μl 70% ethanol. Finally the plates were dried and radioactivity counted in a Wallac Microbeta 1450 after the addition of 15 μL scintillation fluid per well. IC50's (TABLE 3) were calculated by plotting % inhibition versus log10 inhibitor concentrations.
row,SMILES,pIC50
1,"N#Cc1cc(Oc2c(Br)ccc(Cc3cc(-c4ccccc4)[nH]n3)c2F)cc(C(F)F)c1 [Compound I-5, 3-[6-Bromo-2-fluoro-3-(5-phenyl-1H-pyrazol-3-ylmethyl)-phenoxy]-5-difluoromethyl-benzonitrile]",7.26
2,"N#Cc1cc(Cl)cc(Oc2c(Cl)ccc(Cc3n[nH]c4ccccc34)c2F)c1 [Compound I-3, 3-Chloro-5-[6-chloro-2-fluoro-3-(1H-indazol-3-ylmethyl)-phenoxy]-benzonitrile]",7.28

# Test system: not given
# Experiment: not given
# Settings: not given
row,SMILES,melting point
1,"N#Cc1cc(C#N)cc(Oc2c(Br)ccc(Cc3n[nH]c4ncccc34)c2F)c1 [Compound I-16, 5-[6-Bromo-2-fluoro-3-(1H-pyrazolo[3,4-b]pyridin-3-ylmethyl)-phenoxy]-isophthalonitrile]",230 to 232.9 °C
2,N#Cc1cc(C#N)cc(Oc2c(C3CC3)ccc(Cc3n[nH]c4ncccc34)c2F)c1,221 to 223.6 °C
3,"N#Cc1cc(Oc2c(Br)ccc(Cc3cc(-c4ccccc4)[nH]n3)c2F)cc(C(F)F)c1 [Compound I-5, 3-[6-Bromo-2-fluoro-3-(5-phenyl-1H-pyrazol-3-ylmethyl)-phenoxy]-5-difluoromethyl-benzonitrile]",78.3 to 90.1 °C
4,N#Cc1cc(Oc2c(Br)ccc(Cc3n[nH]c4cnccc34)c2F)cc(C(F)F)c1,166 to 166.9 °C
5,"N#Cc1cc(Oc2c(Cl)ccc(Cc3n[nH]c4ncccc34)c2F)cc(C(F)F)c1 [Compound I-28, 3-[6-Chloro-2-fluoro-3-(1H-pyrazolo[3,4-b]pyridin-3-ylmethyl)-phenoxy]-5-difluoromethyl-benzonitrile]",198 to 199 °C
6,N#Cc1cc(Oc2c(Br)ccc(Cc3n[nH]c4ncccc34)c2F)cc(C(F)F)c1,192 to 194.4 °C
7,CS(=O)(=O)Nc1cccc2c(Cc3ccc(Br)c(Oc4cc(Cl)cc(C#N)c4)c3F)n[nH]c12,234 to 236 °C
8,N#Cc1cc(Cl)cc(Oc2c(Br)ccc(Cc3n[nH]c4ncc(F)cc34)c2F)c1,206.5 to 209 °C
9,N#Cc1cc(Cl)cc(Oc2c(Cl)ccc(Cc3n[nH]c4ncccc34)c2F)c1,210 to 215.5 °C
10,Cn1nc(Cc2ccc(Br)c(Oc3cc(Cl)cc(C#N)c3)c2F)c2cccnc21,138.6 to 142.6 °C
11,N#Cc1cc(Cl)cc(Oc2c(C(F)F)ccc(Cc3n[nH]c4nnccc34)c2F)c1,177.5 to 178.2 °C
12,N#Cc1cc(Cl)cc(Oc2c(Br)ccc(Cc3n[nH]c4ncncc34)c2F)c1,215 to 218 °C
13,"N#Cc1cc(Cl)cc(Oc2c(Cl)ccc(Cc3n[nH]c4ccccc34)c2F)c1 [Compound I-3, 3-Chloro-5-[6-chloro-2-fluoro-3-(1H-indazol-3-ylmethyl)-phenoxy]-benzonitrile]",163.3 to 163.7 °C
14,N#Cc1cc(Cl)cc(Oc2c(Br)ccc(Cc3n[nH]c4ccncc34)c2F)c1,216 to 218.5 °C
15,N#Cc1cc(Cl)cc(Oc2c(Br)ccc(Cc3n[nH]c4nc(Cl)ccc34)c2F)c1,212.3 to 214 °C
16,"N#Cc1cc(Cl)cc(Oc2c(Br)ccc(Cc3n[nH]c4nc(Cl)ncc34)c2F)c1 [Compound I-13, 3-[6-Bromo-3-(6-chloro-1H-pyrazolo[3,4-d]pyrimidin-3-ylmethyl)-2-fluoro-phenoxy]-5-chloro-benzonitrile]",216 to 217.9 °C
17,N#Cc1cc(Cl)cc(Oc2c(C3CC3)ccc(Cc3n[nH]c4ncccc34)c2F)c1,215 to 216.8 °C

row,SMILES,melting point
1,N#Cc1cc(Cl)cc(Oc2c(Cl)ccc(Cc3cc(-c4ccccc4)[nH]n3)c2F)c1,148 to 150.1 °C
2,COc1ccc2c(Cc3ccc(Br)c(Oc4cc(Cl)cc(C#N)c4)c3F)n[nH]c2n1,223.8 to 225 °C
3,N#Cc1cc(Cl)cc(Oc2c(Br)ccc(Cc3n[nH]c4c(C#N)cccc34)c2F)c1,250 to 251.1 °C
4,CN1CCc2c(Cc3ccc(Br)c(Oc4cc(Cl)cc(C#N)c4)c3F)n[nH]c2C1=O,235.5 to 237.1 °C
5,Cc1ccc(Cc2n[nH]c3ncccc23)c(F)c1Oc1cc(Cl)cc(C#N)c1,215 to 218.8 °C
6,CS(=O)(=O)c1ccc(Cc2n[nH]c3nnccc23)c(F)c1Oc1cc(Cl)cc(C#N)c1,239.5 to 240.7 °C
7,CCc1ccc(Cc2n[nH]c3ncccc23)c(F)c1Oc1cc(Cl)cc(C#N)c1,205 to 206.9 °C
8,N#Cc1cc(Cl)cc(Oc2c(Br)ccc(Cc3n[nH]c4nnccc34)c2F)c1,237.6 to 240.8 °C
9,"N#Cc1cc(Cl)cc(Oc2c(Br)ccc(Cc3n[nH]c4ncccc34)c2F)c1 [Compound I-7, 3-[6-Bromo-2-fluoro-3-(1H-pyrazolo[3,4-b]pyridin-3-ylmethyl)-phenoxy]-5-chloro-benzonitrile]",242 to 243 °C
10,N#Cc1cc(C#N)cc(Oc2c(Cl)ccc(Cc3n[nH]c4nnccc34)c2F)c1,222.8 to 224.7 °C
11,Cc1ccc(Cc2n[nH]c3ncccc23)c(F)c1Oc1cc(C#N)cc(C(F)F)c1,212.5 to 214.4 °C
12,COc1ccc(Cc2n[nH]c3ncccc23)c(F)c1Oc1cc(C#N)cc(C(F)F)c1,197.9 to 201.9 °C
13,N#Cc1cc(Cl)cc(Oc2c(Br)ccc(Cc3n[nH]c4c([N+](=O)[O-])cccc34)c2F)c1,214.2 to 216 °C
14,N#Cc1cc(Cl)cc(Oc2c(Br)ccc(Cc3n[nH]c4c(N)cccc34)c2F)c1,179.9 to 181.3 °C
15,N#Cc1cc(Cl)cc(Oc2c(Br)ccc(Cc3n[nH]c4cnccc34)c2F)c1,182 to 186.9 °C
16,Cc1cc(C#N)cc(Oc2c(Cl)ccc(Cc3n[nH]c4nnccc34)c2F)c1,200 to 202.9 °C
17,N#Cc1cc(Cl)cc(Oc2c(Br)ccc(Cc3n[nH]c4nccnc34)c2F)c1,204 to 205 °C

# Biological target: T1, HIV-1 RT
# Experiment: Heteropolymer HIV Reverse Transcriptase Assay: Inhibitor IC50 Determination
# Assay type: biochemical
# Settings: purified recombinant enzyme, poly(rA)/oligo(dT)16 template-primer, 4 nM HIV-1 RT, 37° C. 30 min; TABLE 2
# Method: HIV-1 RT assay was carried out in 96-well Millipore MultiScreen MADVNOB50 plates using purified recombinant enzyme and a poly(rA)/oligo(dT)16 template-primer in a total volume of 50 μL. The assay constituents were 50 mM Tris/HCl, 50 mM NaCl, 1 mM EDTA, 6 mM MgCl2, 5 μM dTTP, 0.15 μCi [^3H] dTTP, 5 μg/ml poly (rA) pre annealed to 2.5 μg/ml oligo (dT)16 and a range of inhibitor concentrations in a final concentration of 10% DMSO. Reactions were initiated by adding 4 nM HIV-1 RT and after incubation at 37° C. for 30 min, they were stopped by the addition of 50 μl ice cold 20% TCA and allowed to precipitate at 4° C. for 30 min. The precipitates were collected by applying vacuum to the plate and sequentially washing with 3×200 μl of 10% TCA and 2×200 μl 70% ethanol. Finally, the plates were dried and radioactivity counted in a Packard TopCounter after the addition of 25 μl scintillation fluid per well. IC50's were calculated by plotting % inhibition versus log10 inhibitor concentrations.
row,SMILES,pIC50
1,"N#Cc1cc(Oc2c(Br)ccc(Cc3n[nH]c4ccccc34)c2F)cc(C(F)F)c1 [Compound I-6, 3-[6-Bromo-2-fluoro-3-(1H-indazol-3-ylmethyl)-phenoxy]-5-difluoromethyl-benzonitrile]",7.93
2,"N#Cc1cc(C#N)cc(Oc2c(Br)ccc(Cc3n[nH]c4ncccc34)c2F)c1 [Compound I-16, 5-[6-Bromo-2-fluoro-3-(1H-pyrazolo[3,4-b]pyridin-3-ylmethyl)-phenoxy]-isophthalonitrile]",8.48
3,"N#Cc1cc(Oc2c(Cl)ccc(Cc3n[nH]c4ncccc34)c2F)cc(C(F)F)c1 [Compound I-28, 3-[6-Chloro-2-fluoro-3-(1H-pyrazolo[3,4-b]pyridin-3-ylmethyl)-phenoxy]-5-difluoromethyl-benzonitrile]",8.43
4,"N#Cc1cc(Cl)cc(Oc2c(Cl)ccc(Cc3n[nH]c4nnccc34)c2F)c1 [Compound I-11, 3-Chloro-5-[6-chloro-2-fluoro-3-(1H-pyrazolo[3,4-c]pyridazin-3-ylmethyl)-phenoxy]-benzonitrile]",9.00
5,"N#Cc1cc(Cl)cc(Oc2c(Br)ccc(Cc3n[nH]c4nc(Cl)ncc34)c2F)c1 [Compound I-13, 3-[6-Bromo-3-(6-chloro-1H-pyrazolo[3,4-d]pyrimidin-3-ylmethyl)-2-fluoro-phenoxy]-5-chloro-benzonitrile]",8.07
6,"N#Cc1cc(Cl)cc(Oc2c(Br)ccc(Cc3n[nH]c4ncccc34)c2F)c1 [Compound I-7, 3-[6-Bromo-2-fluoro-3-(1H-pyrazolo[3,4-b]pyridin-3-ylmethyl)-phenoxy]-5-chloro-benzonitrile]",8.12
7,"Cn1c(=O)ccc2c(Cc3ccc(Br)c(Oc4cc(Cl)cc(C#N)c4)c3F)n[nH]c21 [Compound I-48, 3-[6-Bromo-2-fluoro-3-(7-methyl-6-oxo-6,7-dihydro-1H-pyrazolo[3,4-b]pyridin-3-ylmethyl)-phenoxy]-5-chloro-benzonitrile, TFA salt]",9.05
